Data: patent publication US9550792B2, “Polycyclic substituted pyrazole kinase activity inhibitors and use thereof” (priority 2013, dated 2017)
Read-outs that look alike come from different tables or passages of the source.

Experiments:
[1] = test system: Phytophthora infestans; format: in vivo; set-up: concentration or dose not given beside the values
[2] = test system: Cryptococcus neoformans; test: Antifungal activity, modified broth microdilution; format: cell-based; conditions: 48 hours at 35, approximately 50% reduction of growth
Description: (§1) The test microorganisms are maintained on Sabourahd Dextrose Agar slant at 4[…]. Singlet suspension of each microorganism is prepared by growing the yeast overnight at 27[…] on a rotating drum in yeast-nitrogen base broth (YNB) with amino acids (Difco, Detroit, Mich.), (pH 7.0) and 0.05 morpholine propanesulphonic acid (MOPS). […] The activity of the test compound is determined using a modified broth microdilution technique. […] Well 12 serves as a growth control. […] Inoculated plate is incubated for 48 hours at 35 °C. […] Minimal Cytolytic Concentration (MCC) is determined by subculturing all wells from the 96-well plate onto a Sabourahd Dextrose Agar (SDA) plate, incubating for 1-2 days at 35 °C, and then checking viability.

[3] = test system: Candida tropicalis; test: Antifungal activity, modified broth microdilution; format: cell-based; conditions: 48 hours at 35, approximately 50% reduction of growth
Description: as §1

[4] = test system: Candida albicans - ATCC 36082; test: Antifungal activity, modified broth microdilution; format: cell-based; conditions: 48 hours at 35, approximately 50% reduction of growth
Description: as §1

[5] = test system: Candida parapsilosis; test: Antifungal activity, modified broth microdilution; format: cell-based; conditions: 48 hours at 35, approximately 50% reduction of growth
Description: as §1

[6] = target: T1, CDK2/A (Homo sapiens, UniProt P24941); test: Inhibitory activity to CDK2 (FRET); format: biochemical; conditions: for inhibition at 1 µM: read-out: CDK2 inhibition % (1 × 10^−6 mol/L)
T1 construct: purchased
Description: CDK2/A was purchased in the form of a kit or obtained through purification.
Procedures: CDK2/A is diluted to a suitable concentration with kinase diluent. The kinase reaction mixture contains CDK2/A, peptide substrate, HEPES (pH7.5), BRIJ-35, MgCl2 and EDTA. CDK2 phospho-peptide substrate is used as the control of 100% phosphorylation and ATP-free as the control of 0% phosphorylation. After 1 h, the diluted Development Reagent A is added into the reaction system. Then the reaction is allowed to proceed for 1 h and then quenched with Stop Reagent. […] The inhibitions of the tested compounds are calculated according to the formula.

[7] = target: T2, Aurora A (Homo sapiens, UniProt O14965); test: Inhibitory activity to Aurora A (FRET); format: biochemical; conditions: for inhibition at 1 µM: read-out: Aurora A inhibition % (1 × 10^−6 mol/L)
T2 construct: purchased
T2 sequence (O14965 1-403): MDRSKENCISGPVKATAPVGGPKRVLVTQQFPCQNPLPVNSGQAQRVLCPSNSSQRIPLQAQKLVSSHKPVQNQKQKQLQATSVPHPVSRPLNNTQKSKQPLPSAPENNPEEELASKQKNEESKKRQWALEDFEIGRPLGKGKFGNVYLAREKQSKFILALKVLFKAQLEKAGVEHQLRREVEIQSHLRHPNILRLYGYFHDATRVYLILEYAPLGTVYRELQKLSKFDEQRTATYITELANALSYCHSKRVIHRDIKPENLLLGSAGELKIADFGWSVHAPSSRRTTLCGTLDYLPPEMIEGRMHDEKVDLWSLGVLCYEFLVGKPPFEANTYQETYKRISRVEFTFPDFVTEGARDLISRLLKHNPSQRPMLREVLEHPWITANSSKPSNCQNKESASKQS
Description: The inhibitory activities of the synthesized compounds for Aurora A is determined by fluorescence resonance energy transfer (FRET) and were compared with the positive control drug so as to screen the compounds with better activities. Aurora A was purchased in the form of a kit or obtained through purification. Procedures: Aurora A is diluted to a suitable concentration with kinase diluent. The kinase reaction mixture contains Aurora A, peptide substrate, HEPES (pH7.5), BRIJ-35, MgCl2 and EDTA. Aurora A phospho-peptide substrate is used as the control of 100% phosphorylation and ATP-free as the control of 0% phosphorylation. After 1 h, the diluted Development Reagent A is added into the reaction system. Then the reaction is allowed to proceed for 1 h and then quenched with Stop Reagent. The excitation wavelength is 400 nm and the fluorescence intensity is detected at 445 nm (coumarin) and 520 nm (fluorescein). The inhibitions of the tested compounds are calculated according to the formula.

Row | Compound | Severity of tomato leaf blight ([1]; 0.0001 (unit not given)) | Severity of tomato leaf blight ([1]; 0.001 (unit not given)) | Severity of tomato leaf blight ([1]; 0.01 (unit not given)) | Severity of tomato leaf blight ([1]; 0.1 (unit not given)) | Cryptococcus neoformans MIC [2] [mg/L] | Candida tropicalis MIC [3] [mg/L] | Candida albicans - ATCC 36082 MIC [4] [mg/L] | Candida parapsilosis MIC [5] [mg/L] | CDK2 inhibition % (1 × 10^−6 mol/L) [6] [%] | Aurora A inhibition % (1 × 10^−6 mol/L) [7] [%] | inhibition at 1 µM [6] [%] | inhibition at 1 µM [7] [%] | melting point [°C]
1 | Cc1c[nH]c2ncnc(Nc3c[nH]nc3C(=O)Nc3ccc(CN4CCN(C)CC4)cc3)c12 [Compound I-15, 4-(4-(5-methyl-7H-pyrrolo[2,3-d]pyrimidinyl)amino)-N-(4-((4-methyl-1-piperazinyl)methyl)phenyl)-1H-3-pyrazolecarboxamide] | ++ (15-40% blight) | ++ (15-40% blight) | + (0-15% blight) | − | 9.40 | 5.00 | 6.77 | 5.78 | 73.16 | 57.43 |  |  | 
2 | CN1CCN(Cc2ccc(NC(=O)c3n[nH]cc3Nc3ncnc4cc[nH]c34)cc2)CC1 [Compound I-17, 4-(4-(5H-pyrrolo[3,2-d]pyrimidinyl)amino)-N-(4-((4-methyl-1-piperazinyl)methyl)phenyl)-1H-3-pyrazolecarboxamide] | +++ (40-60% blight) | ++ (15-40% blight) | + (0-15% blight) | − | 7.99 | 4.70 | 9.49 | 2.76 | 65.96 | 62.17 |  |  | 
3 | Cc1cc2ncnc(Nc3c[nH]nc3C(=O)Nc3ccc(CN4CCN(C)CC4)cc3)c2[nH]1 [Compound I-19, 4-(4-(6-methyl-5H-pyrrolo[3,2-d]pyrimidinyl)amino)-N-(4-((4-methyl-1-piperazinyl)methyl)phenyl)-1H-3-pyrazolecarboxamide] | ++++ (>60% blight) | ++ (15-40% blight) | + (0-15% blight) | − | 12.86 | 8.58 | 11.80 | 6.45 | 65.01 | 70.28 |  |  | 
4 | CN1CCN(Cc2ccc(NC(=O)c3n[nH]cc3Nc3nccc4ccoc34)cc2)CC1 [Compound I-37, 4-(7-furo[2,3-c]pyridylamino)-N-(4-((4-methyl-1-piperazinyl)methyl)phenyl)-1H-3-pyrazolecarboxamide] |  |  |  |  |  |  |  |  |  |  | 72.2 | 59.6 | 258 to 261
5 | O=C(Nc1ccc(CN2CCOCC2)cc1)c1n[nH]cc1Nc1nccc2ccoc12 [Compound I-38, 4-(7-furo[2,3-c]pyridylamino)-N-(4-((4-morpholinyl)methyl)phenyl)-1H-3-pyrazolecarboxamide] |  |  |  |  |  |  |  |  |  |  | 64.8 | 51 | 268 to 272
6 | O=C(Nc1ccc(CN2CCOCC2)cc1)c1n[nH]cc1Nc1ccnc2ccoc12 [Compound I-40, 4-(7-furo[3,2-b]pyridylamino)-N-(4-((4-morpholinyl)methyl)phenyl)-1H-3-pyrazolecarboxamide] |  |  |  |  |  |  |  |  |  |  | 20.2 | 40.7 | 275 to 278
7 | CN1CCN(Cc2ccc(NC(=O)c3n[nH]cc3Nc3ccnc4occc34)cc2)CC1 [Compound I-41, 4-(4-furo[2,3-b]pyridylamino)-N-(4-((4-methyl-1-piperazinyl)methyl)phenyl)-1H-3-pyrazolecarboxamide] |  |  |  |  |  |  |  |  |  |  | 56.2 | 42.6 | 273 to 276
8 | O=C(Nc1ccc(CN2CCOCC2)cc1)c1n[nH]cc1Nc1ccnc2occc12 [Compound I-42, 4-(4-furo[2,3-b]pyridylamino)-N-(4-((4-morpholinyl)methyl)phenyl)-1H-3-pyrazolecarboxamide] |  |  |  |  |  |  |  |  |  |  | 54.2 | 51.8 | 269 to 271
